Here are results for one compound from US20040127529A1, “Remedies for skin ulcer” (Fujisawa Pharmaceutical Co., Ltd., priority 1999, published 2004).

This assay concerns full-thickness wound in C57BL/KsJ db/db mice. The experiment in a line: db/db mouse full-thickness wound model. The class given is in vivo. The settings on record: for wound area reduction: 100 μl applied once daily for 18 days, day 18 following wound construction (vehicle 73%); for day from which wound area differs significantly (p<0.05) from the vehicle control group: once daily. From the text: Test Example 1 (db/db mouse full-thickness wound model)
Using 10-week-old male C57BL/KsJ db/db mice (db/db mice) and the corresponding control C57BL/KsJ +m/+m mice (+m/+m mice), the back hair coat was removed with a depilatory cream. After 3 days, using ophthalmological scissors, the skin in a circular area with a diameter of about 1.5 cm at the dorsal midline was removed to construct a full-thickness wound. Thereafter, the full-thickness wound area was covered with a poly-urethane film agent. During 18 consecutive days beginning the day of wound construction, 100 μl of the investigational compound solution or distilled water (vehicle) was taken in a syringe and applied through the polyurethane film once daily. The polyurethane film agent was changed every day and after disinfection with 3% H2O2, the drug was applied in the same manner as above. The wound area was measured by the tracing method under light anesthesia every other day as a rule. With the initial wound area at the beginning of drug application being taken as 100%, the fractional area at each day of measurement was calculated.

Consider `O=C(O)COc1cccc2c1CC[C@](O)(COC(=O)N(c1ccccc1)c1ccccc1)C2` [test compound, [[(2R)-5-(carboxymethoxy)-2-hydroxy-1,2,3,4-tetrahydronaphth-2-yl]methyl]N,N-diphenylcarbamate], for which, under “0.01% and 0.1% solutions”, the “early expansion of wound area” value is “not observed” and the “overall conclusion on wound healing” value is recorded as “wound healing-promoting action”. In addition, under “0.01% solution”, the wound area reduction is listed as 90% and the “day from which wound area differs significantly (p<0.05) from the vehicle control group” value was ≥ 7 days. In addition, for the setting “0.1% solution”, the wound area reduction turned out to be 93% and the “day from which wound area differs significantly (p<0.05) from the vehicle control group” value is ≥ 4 days.
